Values quoted from earlier work in article PMC10816276 (International Journal of Molecular Sciences, 2024).

Biological target: T1, Mushroom tyrosinase (mTyr) (Agaricus bisporus, UniProt C7FF04)
T1 construct: purchased Sigma-Aldrich
Settings: substrate L-DOPA; cited from earlier work

T1 sequence (C7FF04 1-392): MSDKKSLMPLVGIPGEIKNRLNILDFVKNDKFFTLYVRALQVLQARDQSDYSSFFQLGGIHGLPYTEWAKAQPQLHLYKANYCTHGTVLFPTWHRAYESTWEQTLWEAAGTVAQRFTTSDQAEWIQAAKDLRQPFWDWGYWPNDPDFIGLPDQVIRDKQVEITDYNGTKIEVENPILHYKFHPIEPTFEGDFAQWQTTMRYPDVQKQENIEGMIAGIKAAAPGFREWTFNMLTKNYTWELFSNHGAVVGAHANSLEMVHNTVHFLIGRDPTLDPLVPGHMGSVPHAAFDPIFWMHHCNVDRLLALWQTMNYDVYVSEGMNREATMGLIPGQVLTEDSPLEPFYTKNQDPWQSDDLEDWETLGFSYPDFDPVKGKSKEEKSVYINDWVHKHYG

OC[C@H]1O[C@@H](Oc2ccc(O)cc2)[C@H](O)[C@@H](O)[C@@H]1O [beta-arbutin, reference compound]
inhibitory effect on the diphenolase activity of mTyr: no inhibitory effect
